# Measurements: patent US10745434B2, “Uridine phosphoramide prodrug, preparation method therefor, and medicinal uses thereof” (priority 2016, dated 2020)
# Where two headings read alike, the source gives them in different places.
# Legend:
# [1] = Cytotoxicity in HCV-1b replicon cells (cell growth fluorescent titration); assay type: cell-based; details: HCV genotype 1b stably transfected replicon cells, HCV GT1b replicon cells
# Experimental: (§1) A hepatitis C virus (HCV) genotype (GT) 1b stable transfection replicon cell line system was used to determine the inhibitory activity of the compounds to the HCV GT1b replicons. In this experiment, the compound 06a (GS-7977) was used as a control compound to monitor the experimental quality.
# (§2) [drawing 4] 2. Compound dilution: 20 mM mother liquor was prepared by using 100% DMSO, and the compound DMSO mother liquor was diluted and added to a 96-well experiment plate. The final concentration of the DMSO was 0.5%. In in-vitro anti-HCV activity experiments and cytotoxicity experiments, all compounds had the initial concentration of 20 microns, and were diluted by 5 times of dilution. The final concentration of the DMSO of 6 concentrations were 0.5%. 3. Cell treatment: HCV-1b replicon sub-cells were added to the above 96-well cell plate (8,000 cells/well), and then placed into an incubator of 37 DEG C. and 5% CO2 for culturing for 3 days. 4. Cell activity detection: a cell growth fluorescent titration detection reagent was added to each well; after the cells were cultured for 1 hour in the incubator of 37 DEG C. and 5% CO2, a spectrophotometer detection system Envision was used to detect a Fluorescence signal value. The original data, i.e, relative fluorescence units (RFUs), was used for the calculation of the cell toxicity of the compounds. 5. Anti-HCV replicon activity detection: a luciferase light-emitting substrate bright-GLO was added to each well, and a chemiluminescence detection system Envision was used for detecting a Luminescence signal value in 5 minutes. The original data, i.e., relative light units (RLUs), was used for the calculation of the inhibitory activity of the compounds. 6. Data processing: the RFUs obtained in step 1.3 were processed into a cell activity percentage by using the following formula: […]
# (§3) The cell activity percentage and the inhibition percentage were respectively imported into GraphPad Prism software for data processing to obtain curves corresponding to the compounds and their values of cytotoxicity (CC50) and inhibitory activity (ECD50) to the HCV replicons.
# HCV GT1b replicons = experiment: Anti-HCV replicon activity, HCV GT1b stable transfection replicon cell line (luciferase); assay type: cell-based, hepatitis C virus (HCV) genotype (GT) 1b
# Experimental: as §1, §2
# The RLUs obtained in step 1.4 were processed into a inhibition percentage by using the following formula:
# [formula] *CPD: signal values of compound wells HPE (high percent effect): 100% effective action control well signal value, with only DMEM culture solution in the wells; The ZPE (zero percent effect): noneffective control well signal value, with 0.5% DMSO to replace the compound.
# as §3
# [2] = Simulated gastric liquid stability; assay type: in vitro ADME
# Human liver S9 stability = assay type: in vitro ADME; details: human liver S9, test concentration 1 μM
# Experimental: 4. Human Liver S9 Stability Parameters (Test Concentration: 1 μM), See Table 5.
# [3] = Simulated intestinal fluid stability; assay type: in vitro ADME; details: test concentration 10 μM
# Experimental: 2. Simulated Intestinal Fluid Stability (Test Concentration: 10 μM), See Table 3: […]
# [4] = test system: HCV-1b replicon sub-cells; experiment: Cytotoxicity in HCV-1b replicon cells (cell growth fluorescent titration); assay type: cell-based; details: HCV GT1b replicon cells, 3 days
# Experimental: as §1, §2, §3
# Human plasma stability = assay type: in vitro ADME; details: test concentration 2 μM
# Experimental: 3. Human Plasma Stability (Test Concentration: 2 μM), See Table 4.
# [5] = Hepatitis C virus, GT1B, 72 h, read-out: EC50 anti-HCV replicon activity, HCV GT1b replicons, 3 days, maximum test concentration 20 μM
# [6] = read-out: EC50 anti-HCV replicon activity, HCV GT1b replicons, 3 days, maximum test concentration 20 μM
Compound,CC50 at 3 days [1] [µM],EC50 (HCV GT1b replicons; [5]) [µM],CLlint(s9) (Human liver S9 stability) [µL/min/mg],half-life at 1 μM (Human liver S9 stability) [min],Remaining % (NCF = 1 h) (Human liver S9 stability) [%],Remaining % (T = 1 h) (Human liver S9 stability) [%],CLlint(s9) (Human liver S9 stability; scaled per kg) [µL/min/kg],% 0 h residual percentage [3] [%],% 1 h residual percentage [3] [%],% 2 h residual percentage [3] [%],% 6 h residual percentage [3] [%],% 24 h residual percentage [3] [%],% 0 min residual percentage (Human plasma stability) [%],% 10 min residual percentage (Human plasma stability) [%],% 30 min residual percentage (Human plasma stability) [%],% 60 min residual percentage (Human plasma stability) [%],% 120 min residual percentage (Human plasma stability) [%],also measured
COc1ccc(COP(=O)(N[C@@H](C)C(=O)OC(C)C)OC[C@H]2O[C@@H](n3ccc(=O)[nH]c3=O)[C@](C)(F)[C@@H]2O)cc1 (stereo partly shown) [Compound 05],> 20,> 20,–,–,–,–,–,–,–,–,–,–,–,–,–,–,–,–
COc1ccc2[nH]c([S+]([O-])Cc3ncc(C)c(OC)c3C)nc2c1 (stereo not shown) [Omeprazole],–,–,–,–,–,–,–,–,–,–,–,–,–,–,–,–,–,% 0 h residual percentage ([2]; 20 μM): 100%; % 1 h residual percentage ([2]; 20 μM): 5.24%; % 2 h residual percentage ([2]; 20 μM): 2.76%; % 6 h residual percentage ([2]; 20 μM): 0.20%; % 24 h residual percentage ([2]; 20 μM): 0.00%
CCOc1ccc2ccc(=O)oc2c1 [7-Ethoxycumarin],–,–,194.2,3.6,103.3,0.0,683.5,–,–,–,–,–,–,–,–,–,–,–
O=C(O)CCCc1ccc(N(CCCl)CCCl)cc1 [Chlorambucil],–,–,–,–,–,–,–,100,43.83,3.91,0.00,0.00,–,–,–,–,–,–
CC(C)OC(=O)C(C)NP(=O)(OCc1ccccc1)OCC1OC(n2ccc(=O)[nH]c2=O)C(C)(F)C1O (mixture of isomers) [Compound 01],–,–,7.2,–,67.4,56.2,25.2,100,1.69,0.08,0.00,0.00,100,98.9,81.7,80.9,74.9,"T1/2 (Human liver S9 stability): 96.6 min; CC50 [4]: > 20 µM; % 0 h residual percentage ([2]; test concentration 10 μM): 100%; % 1 h residual percentage ([2]; test concentration 10 μM): 96.81%; % 2 h residual percentage ([2]; test concentration 10 μM): 105.99%; % 6 h residual percentage ([2]; test concentration 10 μM): 100.76%; % 24 h residual percentage ([2]; test concentration 10 μM): 71.32%; EC50 (HCV GT1b replicons; HCV GT1b replicons, 3 days, maximum test concentration 20 μM, read-out: EC50 anti-HCV replicon activity): 6.12 µM"
Cc1ccc(COP(=O)(N[C@@H](C)C(=O)OC(C)C)OC[C@H]2O[C@@H](n3ccc(=O)[nH]c3=O)[C@](C)(F)[C@@H]2O)cc1 (stereo partly shown) [Compound 04],> 20,10 to 20,–,–,–,–,–,–,–,–,–,–,–,–,–,–,–,EC50 (HCV GT1b replicons; [6]): 15.2 µM
CC(C)OC(=O)[C@H](C)NP(=O)(OC[C@H]1O[C@@H](n2ccc(=O)[nH]c2=O)[C@](C)(F)[C@@H]1O)Oc1ccccc1 (stereo partly shown) [Patent compound 06 in 2008],> 20,< 10,6.0,115,64.0,58.6,21.1,100,0.00,0.00,0.00,0.00,100,78.8,70.9,72.0,65.3,% 0 h residual percentage ([2]; test concentration 10 μM): 100%; % 1 h residual percentage ([2]; test concentration 10 μM): 95.19%; % 2 h residual percentage ([2]; test concentration 10 μM): 98.47%; % 6 h residual percentage ([2]; test concentration 10 μM): 84.08%; % 24 h residual percentage ([2]; test concentration 10 μM): 49.36%; EC50 (HCV GT1b replicons; [6]): 9.82 µM
CC(C)[N+](C)(CCOC(=O)C1c2ccccc2Oc2ccccc21)C(C)C [Propantheline],–,–,–,–,–,–,–,–,–,–,–,–,100,53.3,14.3,2.2,0.0,–
COc1ccccc1COP(=O)(N[C@@H](C)C(=O)OC(C)C)OC[C@H]1O[C@@H](n2ccc(=O)[nH]c2=O)[C@](C)(F)[C@@H]1O (stereo partly shown) [Compound 03],> 20,> 20,–,–,–,–,–,–,–,–,–,–,–,–,–,–,–,–
"Cc1ccccc1COP(=O)(N[C@@H](C)C(=O)OC(C)C)OC[C@H]1O[C@@H](n2ccc(=O)[nH]c2=O)[C@](C)(F)[C@@H]1O (single isomer, unassigned) [Unresolved enantiomer 02 of patent compounds in 2013]",> 20,10 to 20,72.6,9.5,64.7,1.1,255.6,100,0.63,0.08,0.00,0.00,100,73.3,69.5,62.8,58.8,% 0 h residual percentage ([2]; test concentration 10 μM): 100%; % 1 h residual percentage ([2]; test concentration 10 μM): 82.70%; % 2 h residual percentage ([2]; test concentration 10 μM): 82.45%; % 6 h residual percentage ([2]; test concentration 10 μM): 74.80%; % 24 h residual percentage ([2]; test concentration 10 μM): 41.56%; EC50 (HCV GT1b replicons; [6]): 17.7 µM
O=c1ccc2ccc(O)cc2o1 [7-Hydroxycoumarin],–,–,7.2,96.6,67.4,56.2,25.2,–,–,–,–,–,–,–,–,–,–,–
